“Also recorded” adds a separate entry of the source.
Columns and labels:
Format in all cases: cell-based, human
[1] = tested on: T84 cells (histamine-stimulated chloride ion secretion); assay: Histamine-stimulated chloride ion secretion (short circuit current) in T84 monolayers; details: for effect on histamine-stimulated / calcium-mediated chloride ion secretion (in words): T84 cells; for activity at 200 µM: 200 μM compound alone
Experimental: Enantiomerically pure 1,2-Bt2 -Ins(3,4,5,6)P4 /AM was synthesized to determine if 1,2-Bt2 -Ins(3,4,5,6)P4 /AM mediates the uncoupling of chloride ion secretion from intracellular calcium concentrations. […] After 7-10 days of incubation on SNAP-WELLS (Corning Costar; Cambridge, Mass.), monolayers had formed tight junctions. Cell monolayers were preincubated with 100, 200 or 400 μM Bt2 -Ins(3,4,5,6)P4 /AM for 30 min prior to mounting. After an additional 30 min, 0.1 mM histamine was added and chloride ion secretion was monitored. Chloride ion secretion was measured as short circuit current (Isc) across T84 monolayers grown to confluence and mounted in Ussing chambers equipped with voltage clamps (Physiologic Instruments; San Diego, Calif.). Data was acquired and analyzed using "Acquire and Analyze" software (Physiologic Instruments).
(§1) Initial studies were directed towards understanding structural determinants of Ins(3,4,5,6)P4 responsible for the inhibitory effect on calcium-mediated chloride ion secretion. A series of cell permeable inositol polyphosphate derivatives were synthesized. These derivatives contained either one or two non-hydrolyzable chemical groups on the 1, 2 or 3 position. T84 monolayers were preincubated for 30 minutes with 200 μM of 2-Bt-1-Me-Ins(3,4,5,6)P4 /AM, Me2 -Ins(3,4,5,6)P4 /AM, Me2 -Ins(1,4,5,6)P4 /AM or 2-Bt-3-Me-Ins(1,4,5,6)P4 /AM.
(§2) Following the incubation, cells were mounted in Ussing chambers. Calcium-mediated chloride ion secretion was stimulated with histamine (10^-4 M). Control values were the response to histamine in coincubated monolayers. Data are represented as mean peak ΔIsc ±SEM, expressed as % control for 8 to 10 experiments. Significant differences were identified using the Student's two-tailed t test.

[2] = tested on: colonic epithelial T84 cells (calcium-mediated chloride ion secretion); assay: Inhibition of calcium-mediated chloride ion secretion (Table I summary)
Source text: The invention provides compounds that are agonists or antagonists of inositol polyphosphates. Inositol polyphosphate derivatives can function as inositol polyphosphate agonists and antagonists. The effects of compounds of the invention on Ins(3,4,5,6)P4 - and PtdInsP3 -mediated inhibition of calcium-mediated chloride ion secretion are described in the Examples and summarized in Table I.
Enantiomerically pure 1,2-Bt2 -Ins(3,4,5,6)P4 /AM was synthesized to determine if 1,2-Bt2 -Ins(3,4,5,6)P4 /AM mediates the uncoupling of chloride ion secretion from intracellular calcium concentrations. T84 cells (passages 18-48) were maintained as described previously (Weymer, et al., J. Clin. Invest. 76:1828 (1985)), which is incorporated herein by reference. After 7-10 days of incubation on SNAP-WELLS (Corning Costar; Cambridge, Mass.), monolayers had formed tight junctions. Cell monolayers were preincubated with 100, 200 or 400 μM Bt2 -Ins(3,4,5,6)P4 /AM for 30 min prior to mounting. After an additional 30 min, 0.1 mM histamine was added and chloride ion secretion was monitored. Chloride ion secretion was measured as short circuit current (Isc) across T84 monolayers grown to confluence and mounted in Ussing chambers equipped with voltage clamps (Physiologic Instruments; San Diego, Calif.). Data was acquired and analyzed using "Acquire and Analyze" software (Physiologic Instruments).

[3] = tested on: T84 cells (Ins(3,4,5,6)P4 inhibition of histamine-stimulated chloride ion secretion); assay: Reversal of Bt2 -Ins(3,4,5,6)P4 /AM inhibition of histamine-stimulated chloride ion secretion in T84 cells; details: for Peak ΔIsc (% Control) after histamine (100 μM): 200 μM antagonist + 200 μM Bt2 Ins (3,4,5,6)P4 /AM, mean ± SEM, 30 min; for reversal of the inhibitory effect of Bt2 -Ins(3,4,5,6)P4 /AM / Ins(3,4,5,6)P4-mediated inhibition (in words): T84 cells, histamine-stimulated
Experimental: as §1, §2
T84 cells were preincubated with cell permeant inositol polyphosphates as described above to determine if any of the inositol polyphosphate derivatives function as antagonists of Ins(3,4,5,6)P4 inhibition of calcium-mediated chloride ion secretion. Following histamine stimulation, short circuit current was measured. […] The % control shown in FIG. 3 represents ΔIsc over peak Isc in control monolayers stimulated with histamine. However, […]

[4] = tested on: T84 colonic epithelial cells (carbachol-mediated inhibition of chloride ion secretion); assay: Reversal of carbachol-mediated inhibition of thapsigargin-stimulated chloride ion secretion in T84 cells; details: carbachol 10^-4 M, thapsigargin 1 μM
Experimental: T84 colonic epithelial cells were treated with D,L-1,2-cyclohexylidene-Ins(3,4,5,6)P4 /AM, 1-Bu-2-Bt-Ins(3,4,5,6)P4 /AM, Bu2 -Ins(3,4,5,6)P4 /AM, 3-Bt-2-Bu-Ins(1,4,5,6)P4 /AM, Bu2 -Ins(1,4,5,6)P4 /AM, 1-Bt-2-Bu-Ins(3,4,5,6)P4 /AM or 3-Bu-2-Bt-Ins(1,4,5,6)P4 /AM and the short circuit current was measured.
One set of cells was preincubated for 30 min with an inositol polyphosphate derivative. The other two sets of cells were preincubated with vehicle, alone. Measurement of Isc was initiated at time 0. At 5 min, carbachol (10^-4 M) was added to one set of cells preincubated with vehicle alone (designated "Carbachol" in FIG. 5) and to the set of cells preincubated with inositol polyphosphate derivatives (designated "Carbachol+D,L-1,2-Cyclohexylidene-Ins(3,4,5,6)P4 /AM" in FIG. 5A). At 30 min, 1 μM thapsigargin was added. Data were collected for n=4 to 6 experiments.

[5] = tested on: T84 cells (carbachol-stimulated chloride ion secretion); assay: Carbachol-stimulated (calcium-mediated) chloride ion secretion in T84 cells; details: for effect on carbachol-stimulated / calcium-mediated chloride ion secretion (in words): T84 cells, preincubation
Experimental: The cell permeable derivative D,L-Bt3 -Ins(1,3,4)P3 /AM was synthesized. Colonic epithelial T84 cells were preincubated for 30 min with 400 μM D,L-Bt3 -Ins(1,3,4)P3 /AM prior to mounting in Ussing chambers and measuring ΔIsc. At 10 min, carbachol (10^-4 M) was added to transiently stimulate calcium-mediated chloride ion secretion. Data were the average of 8 experiments with p<0.04, unpaired, two-sided student's t-test. […]

[6] = Homo sapiens, T84, 0.5 h, mean ± SEM, read-out: Peak ΔIsc (% Control) after histamine (100 μM)

Molecule	Mechanism and Inositol Polyphosphate Pathway Affected ([2]; pathway: Ins (3,4,5,6)P4)	activity at 200 µM [1, 6]	Peak ΔIsc (% Control) after histamine (100 μM) [3]	reversal of the inhibitory effect of Bt2 -Ins(3,4,5,6)P4 /AM / Ins(3,4,5,6)P4-mediated inhibition (in words) [3]	also measured
CC(=O)OCOP(=O)(OCOC(C)=O)O[C@H]1[C@H](OP(=O)(OCOC(C)=O)OCOC(C)=O)[C@@H](OP(=O)(OCOC(C)=O)OCOC(C)=O)[C@@H](Cl)[C@@H](Cl)[C@@H]1OP(=O)(OCOC(C)=O)OCOC(C)=O (relative stereo) [D,L-1,2-Cl2-dideoxy-Ins(3,4,5,6)P4 /AM, D,L-1,2-dichloro-1,2-dideoxy-myo-inositol 3,4,5,6-TKphosphate oct (acetoxymethyl) ester]					activity at 400 µM ([1]; Homo sapiens, T84, 0.5 h, 400 μM compound alone, mean ± SEM, read-out: Peak ΔIsc (% Control) after histamine (100 μM)): 89.4 ± 7.8%; effect on histamine-stimulated / calcium-mediated chloride ion secretion (in words) [1]: slight inhibitory effect on chloride ion secretion
CCCC(=O)O[C@@H]1[C@@H](OC(=O)CCC)[C@H](OP(=O)(OCOC(C)=O)OCOC(C)=O)[C@@H](OP(=O)(OCOC(C)=O)OCOC(C)=O)[C@H](OP(=O)(OCOC(C)=O)OCOC(C)=O)[C@H]1OP(=O)(OCOC(C)=O)OCOC(C)=O (relative stereo) [D,L-Bt2 -scyllo-Ins(3,4,5,6)P4 /AM, D,L-1,2-O-butyryl-scyllo-inositol 3,4,5,6-TKphosphate oct (acetoxymethyl) ester]	Agonist of				effect on histamine-stimulated / calcium-mediated chloride ion secretion (in words) [1]: inhibit calcium-mediated chloride secretion; effect on histamine-stimulated / calcium-mediated chloride ion secretion (in words) ([1]; listed as scyllo derivative of the cell permeable Bt2 -Ins(3,4,5,6)P4 /AM): at least as effective an inhibitor as the myo derivative
CCCC(=O)O[C@H]1[C@@H](OC)[C@H](OP(=O)(OCOC(C)=O)OCOC(C)=O)[C@@H](OP(=O)(OCOC(C)=O)OCOC(C)=O)[C@H](OP(=O)(OCOC(C)=O)OCOC(C)=O)[C@H]1OP(=O)(OCOC(C)=O)OCOC(C)=O [2-Bt-1-Me-Ins(3,4,5,6)P4 /AM, 2-O-butyryl-1-O-methyl-myo-inositol 3,4,5,6-TKphosphate oct (acetoxymethyl) ester]	Antagonist of	87.3 ± 6.6%	117.7 ± 10.6 % Control	enhanced chloride ion secretion; also recorded: reversed Ins(3,4,5,6)P4 -mediated inhibition of chloride ion secretion; also recorded: reversed the inhibitory effect of Bt2 -Ins(3,4,5,6)P4 /AM	
CCCC(=O)O[C@@H]1[C@H](OC)[C@@H](OP(=O)(OCOC(C)=O)OCOC(C)=O)[C@H](OP(=O)(OCOC(C)=O)OCOC(C)=O)[C@@H](OP(=O)(OCOC(C)=O)OCOC(C)=O)[C@@H]1OP(=O)(OCOC(C)=O)OCOC(C)=O [2-Bt-3-Me-Ins(1,4,5,6)P4 /AM, 2-O-butyryl-3-O-methyl-myo-inositol 3,4,5,6-TKphosphate oct (acetoxymethyl) ester]		106 ± 3.7%	69.7 ± 5.04 % Control	had essentially no effect	
CCCCO[C@@H]1[C@H](OCCCC)[C@@H](OP(=O)(OCOC(C)=O)OCOC(C)=O)[C@H](OP(=O)(OCOC(C)=O)OCOC(C)=O)[C@@H](OP(=O)(OCOC(C)=O)OCOC(C)=O)[C@@H]1OP(=O)(OCOC(C)=O)OCOC(C)=O [Bu2 -Ins(1,4,5,6)P4 /AM, D-2,3-Di-O-butyl-myo-inositol 1,4,5,6-tetrakisphosphate octakis(acetozymethyl)ester]					reversal of carbachol-mediated inhibition of chloride ion secretion (in words) [4]: enhanced chloride ion secretion; reversal of carbachol-mediated inhibition of chloride ion secretion (in words) ([4]; listed as 2,3-Bu2 -Ins(1,4,5,6)P4 /AM): did not reverse carbachol-mediated inhibition of chloride ion secretion stimulated by thapsigargin
CO[C@@H]1[C@H](OC)[C@@H](OP(=O)(OCOC(C)=O)OCOC(C)=O)[C@H](OP(=O)(OCOC(C)=O)OCOC(C)=O)[C@@H](OP(=O)(OCOC(C)=O)OCOC(C)=O)[C@@H]1OP(=O)(OCOC(C)=O)OCOC(C)=O [Me2 -Ins(1,4,5,6)P4 /AM, 2,3-di-O-methyl-myo-inositol 3,4,5,6-TKphosphate oct (acetoxymethyl) ester]		120 ± 10.6%	68.4 ± 7.3 % Control	had essentially no effect	
CO[C@@H]1[C@H](OC)[C@H](OP(=O)(OCOC(C)=O)OCOC(C)=O)[C@@H](OP(=O)(OCOC(C)=O)OCOC(C)=O)[C@H](OP(=O)(OCOC(C)=O)OCOC(C)=O)[C@H]1OP(=O)(OCOC(C)=O)OCOC(C)=O [Me2 -Ins(3,4,5,6)P4 /AM, 1,2-di-O-methyl-myo-inositol 3,4,5,6-Tkphosphate oct (acetoxymethyl) ester]	Antagonist of	104 ± 11.1%	107.13 ± 10.2 % Control	reversed the inhibitory effect of Bt2 -Ins(3,4,5,6)P4 /AM	reversal of the inhibitory effect of Bt2 -Ins(3,4,5,6)P4 /AM / Ins(3,4,5,6)P4-mediated inhibition (in words) ([3]; listed as Me2 -Ins-(3,4,5,6)P4 /AM): reversed Ins(3,4,5,6)P4 -mediated inhibition of chloride ion secretion
di-palmitoyl-D,L-O-butyryl-phosphatidyl inositol 3,4,5-trisphosphate heptakis (acetoxymethyl) ester [diC16 -Bt-PtdInsP3 /AM]					Mechanism and Inositol Polyphosphate Pathway Affected ([2]; pathway: PtdInsP3): Agonist of; effect on carbachol-stimulated / calcium-mediated chloride ion secretion (in words) [5]: inhibited calcium-mediated chloride ion secretion; inhibition of calcium-mediated chloride ion secretion ([5]; pretreatment of T84 cells, FIG. 7): up to 74%
phosphatidylinositol trisphosphate [PtdInsP3, reference compound]					effect on carbachol-stimulated / calcium-mediated chloride ion secretion (in words) [5]: No inhibition of calcium-mediated chloride ion secretion
